Where “and” joins values, the source holds several entries; their conditions need not be identical. Equal values may be shown once. Read-outs that look alike come from different tables or passages of the source.
Tests used:
[1] = Thermo-gravimetric analysis (degradation onset); assay type: physicochemical
Experimental: TGA data were collected on a TA Instrument Q500 TGA, equipped with a 16 position auto-sampler. The instrument was temperature calibrated using certified Alumel and Nickel. Typically 5-10 mg of sample was loaded onto a pre-tared aluminium DSC pan and heated at 10° C./min from ambient temperature to 350° C. A nitrogen purge at 60 mL/min was maintained over the sample. The instrument control software was Advantage for Q Series v2.5.0.256 and Thermal Advantage v5.5.3 and the data were analysed using Universal Analysis v4.5A.
TGA profiling was carried out according to methods described above and was used to determine the amount of residual solvents associated with the polymorphs of Compound I. In addition, it was used to measure the quantity of solvent released on heating from the solvated forms of Compound I. Typical residual solvent levels found in samples of the polymorphs of Compound I are as follows.

[2] = Comparative pharmacokinetic profiling of Forms 1 and 2 by inhalation administration to rats; assay type: in vivo, male RccHan:WIST rat; settings: for Tmax: from start of exposure; for Drug Concentration in Animal by No. (plasma): individual animals; for AUCt dose normalised: AUCt of Form 2 normalised to dose achieved for Form 1 (2.48 mg/kg), 2.48 mg/kg; for time up to which plasma concentrations remained quantifiable: after the start of exposure (last sampling time)
Description: A study was undertaken to compare the time-course of unchanged drug concentrations in plasma following a single inhalation dose of either Form 1 or Form 2 in rats.
The male RccHan™:WIST rat was considered a suitable species and strain because of its acceptance by regulatory agencies. The inhalation route of administration was chosen to simulate the conditions of clinical administration. A total of 14 of animals (six animals per group with two spare animals), 10 to 12 weeks of age and weighing 306 to 341 g at the start of drug treatment, were used in the study. Treatment consisted of a single 2 hour inhalation exposure with a nebulised formulation of either micronised Form 1 (98.94% purity) to Group 1 animals or micronised Form 2 (98.10% purity) to Group 2 animals. The pharmacokinetic parameters of the two polymorphic forms were determined to support pharmacology and toxicology studies in animals and clinical studies in man.
Suspensions were manufactured by first preparing a concentrated solution of the surfactants (wetting solution) and a saline solution. These were then used to make the vehicle. A saline solution was prepared as follows. Sodium chloride (50 g) was weighed into a 5000 mL volumetric flask, made up to volume with water, stirred with a magnetic stirrer for 10 min and then passed through a 0.22 μm membrane filter. Wetting solution was prepared as follows. Lipoid S100 (10 g) was weighed into a 2000 mL Duran bottle, 1000 g of propylene glycol was added and the mixture was stirred on a Silverson mixer equipped with a 1″ high shear screen for 1 min at 8000 rpm and then passed through a 0.22 μm membrane filter. Vehicle was prepared as follows. The wetting solution (500 mL) was transferred into a 5000 mL volumetric flask, made to volume with saline solution, stirred with a magnetic stirrer for 10 min and then passed through a 0.22 μm membrane filter.
A 1000 mL batch of 4 mg/mL suspension of Compound I was prepared as follows. Compound I (4.00 g) was weighed into a small beaker, 100 mL of wetting solution was added and the mixture was stirred with a Silverson mixer equipped with a 1″ high shear screen for 5 min at 8000 rpm. The mixture was then transferred into a 5000 mL Duran bottle using saline solution and stirred using a Silverson mixer equipped with a 1″ high shear screen for 5 min at 8000 rpm, after which it was stored between 2 and 8° C. Higher or lower strength suspensions (range 0.2 to 20 mg/mL) were prepared by adjusting the input weight of API as appropriate for higher mg/mL suspensions or by further diluting with vehicle for lower mg/mL suspensions. All formulations were magnetically stirred for at least 30 min, and assessed visually prior to administration.
Rats were acclimatised to the inhalation dosing procedure for three consecutive days prior to dosing. Animals were treated with the test substance by aerosol inhalation administration for 120 min via snout only exposure, at a target aerosol concentration of 25.2 μg/L. The estimations of inhaled dose from an exposure duration of 2 hr and an assumed body weight of 300 g were calculated using the formula:
[formula] where: C is the aerosol concentration (μg/L); RMV is the respiratory minute volume (L/min); D is the duration of exposure (120 mins) and BW is the group mean body weight (kg). The mean achieved aerosol concentrations, estimated inhaled dose and particle size distribution (PSD) summary data are presented below. (Table 14).
Venous blood samples (0.3 mL) were taken from the tail vein of animals and samples collected after dosing (2 hr from the start of dose administration) and thereafter at times 3, 4, 6, 8, 12, 24, 28, 32, 36 and 48 hr following treatment. Samples were treated with K2EDTA anticoagulant, spun at 2000 g for 10 min at 4° C. and then stored frozen (−20° C.±10) whilst awaiting analysis. Plasma samples were subsequently analysed for Compound I by LGC using a validated LC-MS/MS method. […]

[3] = male rats, inhalation, nominal 2.2 mg/kg, 3 hr from start of exposure
[4] = male rats, inhalation, nominal 2.2 mg/kg, 4 hr from start of exposure
[5] = male rats, inhalation, nominal 2.2 mg/kg, 6 hr from start of exposure
[6] = male rats, inhalation, nominal 2.2 mg/kg, 8 hr from start of exposure
[7] = male rats, inhalation, nominal 2.2 mg/kg, 8 hr, group mean
[8] = male rats, inhalation, nominal 2.2 mg/kg, 12 hr from start of exposure
[9] = male rats, inhalation, nominal 2.2 mg/kg, 24 hr from start of exposure
[10] = male rats, inhalation, nominal 2.2 mg/kg, 28 hr from start of exposure
[11] = male rats, inhalation, nominal 2.2 mg/kg, 32 hr from start of exposure
[12] = male rats, inhalation, nominal 2.2 mg/kg, 32 hr, group mean
[13] = male rats, inhalation, nominal 2.2 mg/kg, 36 hr from start of exposure
[14] = male rats, inhalation, nominal 2.2 mg/kg, 36 hr, group mean
[15] = male rats, inhalation, nominal 2.2 mg/kg, 48 hr from start of exposure
[16] = male rats, inhalation, nominal 2.2 mg/kg, IAD (immediately after dosing), group mean
[17] = male rats, inhalation, nominal 2.2 mg/kg, IAD (immediately after dosing)

## Cc1cc(N2CCN(c3ccc(C(=O)Nc4ccc(F)cc4)cc3)CC2)ccc1OC[C@@H]1CO[C@@](Cn2cncn2)(c2ccc(F)cc2F)C1 [Form 1, 4-(4-(4-(((3R,5R)-5-((1H-1,2,4-triazol-1-yl)methyl)-5-(2,4-difluorophenyl)tetrahydrofuran-3-yl)methoxy)-3-methylphenyl)piperazin-1-yl)-N-(4-fluorophenyl)benzamide]
[1]; sample prepared from toluene
  temperature from which degradation was evident (TGA): 320 °C
[2]; RccHan:WIST, rat, plasma, inhaled or intranasal, male rats, single 2 hr inhalation, nominal dose 2.2 mg/kg, read-out: Tmax
  Tmax: 6 h
[2]; [3]
  Drug Concentration in Animal by No. (plasma): 5.31 ng/mL and 4.35 ng/mL and 2.41 ng/mL
[2]; [4]
  Drug Concentration in Animal by No. (plasma): 4.73 ng/mL and 6.32 ng/mL and 3.78 ng/mL
[2]; [5]
  Drug Concentration in Animal by No. (plasma): 5.38 ng/mL and 3.97 ng/mL and 5.49 ng/mL
[2]; [6]
  Drug Concentration in Animal by No. (plasma): 3.28 ng/mL and 2.88 ng/mL
[2]; [7]
  Drug Concentration Mean (plasma): 3.08 ng/mL
[2]; [8]
  Drug Concentration in Animal by No. (plasma): 4.05 ng/mL and 3.64 ng/mL
[2]; [9]
  Drug Concentration in Animal by No. (plasma): 2.47 ng/mL and 3.00 ng/mL and 3.85 ng/mL and 2.75 ng/mL and 2.02 ng/mL and 3.03 ng/mL
[2]; [10]
  Drug Concentration in Animal by No. (plasma): 1.85 ng/mL and 2.22 ng/mL and 3.92 ng/mL and 1.87 ng/mL and 2.04 ng/mL
[2]; [11]
  Drug Concentration in Animal by No. (plasma): 1.36 ng/mL and 1.85 ng/mL and 2.79 ng/mL and 1.66 ng/mL and 2.20 ng/mL and 1.32 ng/mL
[2]; [12]
  Drug Concentration Mean (plasma): 1.86 ng/mL
[2]; [13]
  Drug Concentration in Animal by No. (plasma): 1.21 ng/mL and 1.36 ng/mL and 1.74 ng/mL and 1.70 ng/mL and 1.01 ng/mL and 1.80 ng/mL
[2]; [14]
  Drug Concentration Mean (plasma): 1.47 ng/mL
[2]; [15]
  Drug Concentration in Animal by No. (plasma): 1.10 ng/mL and 1.45 ng/mL and 1.28 ng/mL and 1.26 ng/mL and 1.19 ng/mL
[2]; [16]
  Drug Concentration Mean (plasma): 1.11 ng/mL
[2]; [17]
  Drug Concentration in Animal by No. (plasma): 1.16 ng/mL and 0.826 ng/mL and 1.35 ng/mL
[2]; male rats, inhalation
  AUCt dose normalised: 122 ng·h/mL
  time up to which plasma concentrations remained quantifiable: 48 h
[2]; male, RccHan:WIST, rat, plasma, inhaled or intranasal, 2.2 mg/kg, single 2 hr inhalation of nebulised aqueous suspension, nominal dose 2.2 mg/kg, read-out: Cmax (maximum mean plasma concentration)
  Cmax: 4.95 ng/mL
[2]; male, RccHan:WIST, rat, plasma, inhaled or intranasal, 2.2 mg/kg, single 2 hr inhalation, nominal dose 2.2 mg/kg, 0-48 hr
  AUC(0-t): 122 ng·h/mL
[2]; male, RccHan:WIST, rat, plasma, inhaled, 2.2 mg/kg, inhalation, nominal 2.2 mg/kg, 3 hr, group mean, read-out: Drug Concentration Mean (plasma)
  concentration at 3 h: 4.02 ng/mL
[2]; male, RccHan:WIST, rat, plasma, inhaled, 2.2 mg/kg, inhalation, nominal 2.2 mg/kg, 4 hr, group mean, read-out: Drug Concentration Mean (plasma)
  concentration at 4 h: 4.94 ng/mL
[2]; male, RccHan:WIST, rat, plasma, inhaled, 2.2 mg/kg, inhalation, nominal 2.2 mg/kg, 6 hr, group mean, read-out: Drug Concentration Mean (plasma)
  concentration at 6 h: 4.95 ng/mL
[2]; male, RccHan:WIST, rat, plasma, inhaled, 2.2 mg/kg, inhalation, nominal 2.2 mg/kg, 12 hr, group mean, read-out: Drug Concentration Mean (plasma)
  concentration at 12 h: 3.85 ng/mL
[2]; male, RccHan:WIST, rat, plasma, inhaled, 2.2 mg/kg, inhalation, nominal 2.2 mg/kg, 24 hr, group mean, read-out: Drug Concentration Mean (plasma)
  concentration at 24 h: 2.85 ng/mL
[2]; male, RccHan:WIST, rat, plasma, inhaled, 2.2 mg/kg, inhalation, nominal 2.2 mg/kg, 28 hr, group mean, read-out: Drug Concentration Mean (plasma)
  concentration at 28 h: 2.38 ng/mL
[2]; male, RccHan:WIST, rat, plasma, inhaled, 2.2 mg/kg, inhalation, nominal 2.2 mg/kg, 48 hr, group mean, read-out: Drug Concentration Mean (plasma)
  concentration at 48 h: 1.26 ng/mL

## Cc1cc(N2CCN(c3ccc(C(=O)Nc4ccc(F)cc4)cc3)CC2)ccc1OC[C@@H]1CO[C@@](Cn2cncn2)(c2ccc(F)cc2F)C1 [Form 2, 4-(4-(4-(((3R,5R)-5-((1H-1,2,4-triazol-1-yl)methyl)-5-(2,4-difluorophenyl)tetrahydrofuran-3-yl)methoxy)-3-methylphenyl)piperazin-1-yl)-N-(4-fluorophenyl)benzamide]
[1]; material isolated from MIBK
  temperature at which sample begun to degrade (TGA): 320 °C
[1]; sample derived from EtOH
  temperature at which degradation started (TGA): 320 °C
[2]; male rats, inhalation
  dose normalised AUCt, fold higher than Form 1: 1.7 fold
  AUCt dose normalised: 202 ng·h/mL
  time up to which plasma concentrations remained quantifiable: 48 h
[2]; [3]
  Drug Concentration in Animal by No. (plasma): 8.95 ng/mL and 5.40 ng/mL and 6.01 ng/mL
[2]; male rats, inhalation, nominal 2.2 mg/kg, 3 hr, group mean
  Drug Concentration Mean (plasma): 6.79 ng/mL
[2]; [4]
  Drug Concentration in Animal by No. (plasma): 7.53 ng/mL and 9.31 ng/mL and 8.88 ng/mL
[2]; male rats, inhalation, nominal 2.2 mg/kg, 4 hr, group mean
  Drug Concentration Mean (plasma): 8.57 ng/mL
[2]; [5]
  Drug Concentration in Animal by No. (plasma): 11.8 ng/mL and 5.38 ng/mL
[2]; male rats, inhalation, nominal 2.2 mg/kg, 6 hr, group mean
  Drug Concentration Mean (plasma): 8.59 ng/mL
[2]; [6]
  Drug Concentration in Animal by No. (plasma): 6.85 ng/mL and 5.90 ng/mL and 6.79 ng/mL
[2]; [7]
  Drug Concentration Mean (plasma): 6.51 ng/mL
[2]; [8]
  Drug Concentration in Animal by No. (plasma): 10.7 ng/mL and 4.57 ng/mL and 5.84 ng/mL
[2]; male rats, inhalation, nominal 2.2 mg/kg, 12 hr, group mean
  Drug Concentration Mean (plasma): 7.04 ng/mL
[2]; [9]
  Drug Concentration in Animal by No. (plasma): 11.5 ng/mL
[2]; [10]
  Drug Concentration in Animal by No. (plasma): 8.15 ng/mL and 3.17 ng/mL and 3.32 ng/mL and 4.15 ng/mL and 2.94 ng/mL and 2.93 ng/mL
[2]; male rats, inhalation, nominal 2.2 mg/kg, 28 hr, group mean
  Drug Concentration Mean (plasma): 4.11 ng/mL
[2]; [11]
  Drug Concentration in Animal by No. (plasma): 7.72 ng/mL and 3.50 ng/mL and 3.33 ng/mL and 4.05 ng/mL and 2.75 ng/mL and 2.51 ng/mL
[2]; [12]
  Drug Concentration Mean (plasma): 3.98 ng/mL
[2]; [13]
  Drug Concentration in Animal by No. (plasma): 6.28 ng/mL and 2.43 ng/mL (2×) and 2.54 ng/mL and 3.59 ng/mL and 2.49 ng/mL
[2]; [14]
  Drug Concentration Mean (plasma): 3.29 ng/mL
[2]; [15]
  Drug Concentration in Animal by No. (plasma): 3.78 ng/mL and 1.79 ng/mL and 1.89 ng/mL and 2.52 ng/mL and 1.83 ng/mL and 1.91 ng/mL
[2]; male rats, inhalation, nominal 2.2 mg/kg, 48 hr, group mean
  Drug Concentration Mean (plasma): 2.29 ng/mL
[2]; [16]
  Drug Concentration Mean (plasma): 2.66 ng/mL
[2]; [17]
  Drug Concentration in Animal by No. (plasma): 2.24 ng/mL and 2.59 ng/mL and 3.15 ng/mL
[2]; male rats, single 2 hr inhalation of nebulised aqueous suspension, nominal dose 2.2 mg/kg, 2.2 mg/kg
  Cmax (maximum mean plasma concentration): 8.59 ng/mL
[2]; male rats, single 2 hr inhalation, nominal dose 2.2 mg/kg, 0-48 hr, 2.2 mg/kg
  AUCt: 230 ng·h/mL
[2]; male rats, single 2 hr inhalation, nominal dose 2.2 mg/kg
  Tmax: 6 h

— patent US12491182B2, “Polymorphs of triazole antifungal compound PC945” (Pulmocide Limited, priority 2019, dated 2025)
